Test results published in patent publication EP4570245A1, “COMBINED AGENTS WITH SYNERGISTIC EFFECT AGAINST GLIOMAS” (Eberhard Karls Universität Tübingen Medizinische Fakultät, priority 2023, dated 2025).
pIC50: −log10 of the molar value.

Columns and labels:
[1] = tested on: LN18 and T98G glioma cell lines; assay: Clonogenic survival assay of shRNA knockdown cells under CCNU treatment; type: cell-based
Procedure: The inventors seeded the cells one day prior to treatment. The inventors then treated the cells with the specified concentrations in serum-free medium for 24 hours. Afterward, they changed the medium back to one containing FCS and incubated the cells for a period ranging from 14 to 21 days. The inventors stained the colonies using 0.5% w/v crystal violet and counted them. Measurements were normalized to the respective vehicle control wells.
Based on the CRISPR/Cas9 screen result a loss of the Fanconi anemia DNA repair pathway should increase the effect of CCNU treatment. Therefore, the inventors induced an shRNA knockdown in LN18 and T98G glioma cell lines for FANCA or FANCD2. These knockdown cell lines were treated in clonogenic survival assays with CCNU in comparison to a control cell line transduced with a vector coding for an shRNA against Luciferase (Figure 2).

[2] = target: T1, RMI (RecQ-mediated genome instability protein) core complex/MM2 interaction (Homo sapiens, UniProt Q96E14+Q9H9A7); conditions: inhibitor of RMI core complex/MM2 interaction; MM2 is the binding site of RMI complex on FANCM; cited from earlier work
T1 sequence (Q9H9A7 473-625 limits assumed): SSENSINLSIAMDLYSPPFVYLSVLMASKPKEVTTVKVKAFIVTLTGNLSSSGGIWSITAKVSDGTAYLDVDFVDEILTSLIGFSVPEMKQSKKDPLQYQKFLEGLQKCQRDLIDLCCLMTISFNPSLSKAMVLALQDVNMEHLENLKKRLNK
T1 sequence (Q96E14 1-147): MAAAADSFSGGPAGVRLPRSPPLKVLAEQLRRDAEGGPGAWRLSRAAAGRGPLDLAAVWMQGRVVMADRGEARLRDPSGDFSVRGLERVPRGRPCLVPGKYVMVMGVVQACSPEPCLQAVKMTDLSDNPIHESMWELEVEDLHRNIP

SMILES | sensitivity to CCNU treatment ([1]; FANCA shRNA knockdown cell lines compared to the luciferase shRNA control) | sensitivity to CCNU treatment ([1]; FANCD2 shRNA knockdown cell lines compared to the luciferase shRNA control) | pIC50 [2]
O=NN(CCCl)C(=O)NC1CCCCC1 [CCNU, lomustine] | more sensitive | more sensitive | 
CCOC(=O)N1CCN(C(c2ccccn2)c2c(-c3ccccc3)n(O)c3ccccc23)CC1 (stereo not drawn) [PIP-199] |  |  | 4.44
